Test results: US20060148895A1, “New composition use and method” (priority 2002, published 2006)
Like-named read-outs stand apart in the source and are kept apart here.

Key:
[1] = Washing-out properties: residuals of Pres. (18) components after rinsing the housing; settings: to a 50 kg person
Procedure: In a safety evaluation it assumed that the entire volume of a housing is filled with the aqueous antimicrobial preservation composition as the worst case. […] (18). The housing was inserted in its device for extra-corporeal circulation treatment and rinsed with 900 ml of a Ringer-Acetate solution (Pharmacia, Inc) before clinical use. The residual concentration of the components of Pres. (18) after the rinsing procedure was then analyzed. The maximum concentrations found were below the detection limit: […]

[2] = 5 day covered contact in 50 human volunteers, cited from earlier work
[3] = neat ethyl paraben; cited from earlier work
[4] = healthy subjects; cited from earlier work
[5] = cited from earlier work
[6] = cited from earlier work; remark: listed apart in the source
[7] = after ingesting 2000 mg/day for 30 days; cited from earlier work
[8] = cited from earlier work; remark: listed apart in the source
[9] = cited from earlier work; remark: listed apart in the source
[10] = cited from earlier work; remark: listed apart in the source

Row | Compound | Maximal intravenous dose from residuals [1] [mg/kg] | Skin irritation (human) ([2]; 7% solution in propylene glycol) | Eye irritation (rabbit) [3] | Skin sensitisation (human) [4] | Acute oral LD50 (Rat) [5] [mg/kg] | Repeated oral dose (Rat) - 25 weeks: signs of toxicity ([6]; diet containing 2% ethyl paraben, 25 weeks) | Repeated oral dose (human) [7] | Skin irritation (human) ([2]; 5% solution in Propylene glycol) | Eye irritation (human): time within which irritation and burning sensation disappeared ([8]; solutions containing 0.1-0.3% methyl paraben) | Acute oral LD50 (Mouse) [9] [mg/kg] | Intraperitoneal LD50 (Mouse) [10] [mg/kg] | Repeated oral dose (Rat) - 96 weeks: dose that gave no visible signs of toxicity or tissue changes in the major organs [6] | Skin irritation (human) ([2]; 12% solution in Propylene glycol) | Eye irritation (human) ([8]; solution containing 0.01% propyl paraben, contact time of 15 minutes in 60 patients)
1 | CCOC(=O)c1ccc(O)cc1 [Ethyl paraben] | <0.042 | glycol was non-irritant. (5 | slight irritation | No evidence of skin | >4300 | paraben gave no visible signs | – | – | – | – | – | – | – | –
2 | CC(O)CO (stereo not drawn) [Propylene glycol] | <0.022 | – | – | – | – | – | – | – | – | – | – | – | – | –
3 | COC(=O)c1ccc(O)cc1 [Methyl paraben] | 0.042 | – | – | No evidence of skin | – | – | No obvious toxic effects | glycol was non-irritant. (5 | disappeared within 1 minute | >8000 | 960 | 900-1200 mg/kg/day gave no | – | –
4 | CCCOC(=O)c1ccc(O)cc1 [Propyl paraben] | <0.042 | – | – | – | – | – | – | – | – | >8000 | 640 | 900-1200 mg/kg/day gave no | glycol was non-irritant. (5 | propyl paraben produced no
